Source: ChEMBL document CHEMBL6134843, “HDAC11 Inhibition as a Potential Therapeutic Strategy for AML: Target Identification, Lead Discovery, Antitumor Potency, and Mechanism Investigation” (J Med Chem, 2025)
Active and inactive are the calls of the source. The rule behind the calls is not given here.

Tests used:
[1] = MRT (0 to infinity) in ICR(CD-1) mouse at 50 mg/kg, ip treated up to 24 hrs by LC-MS/MS analysis; assay type: ADME, organism-based; conditions: in vivo
[2] = AUC (0 to infinity) in ICR(CD-1) mouse at 50 mg/kg, ip treated up to 24 hrs by LC-MS/MS analysis; assay type: ADME, organism-based; conditions: in vivo
U-937 [3] = assay: Induction of cell differentiation in human U-937 cells assessed as increase in CD11b expression at 5 uM incubated for 48 hrs by flow cytometry analysis; assay type: functional, cell-based
[4] = system: Acute myeloid leukemic cell; assay: Induction of ferroptosis in human Acute myeloid leukemic cells assessed as increase in ACSL4 level by Western blot analysis; assay type: functional, cell-based
U-937 [5] = assay: Induction of ferroptosis in human U-937 cells assessed as increase in malondialdehyde level at 5 uM incubated for 48 hrs in presence of ferrostatin-1; assay type: functional, cell-based
[6] = system: Acute myeloid leukemic cell; assay: Induction of ferroptosis in human Acute myeloid leukemic cells assessed as upregulation of GPX4 mRNA level by RT-qPCR analysis; assay type: functional, cell-based
MLL-AF9 [7] = assay: Antitumor activity against mouse MLL-AF9 cells allografted in female C57BL/6 mouse model assessed as reduction in splenomegaly at 50 mg/kg, ip administered once daily for 23 days; assay type: functional, organism-based; conditions: time 23.0 day
U-937 [8] = assay: Induction of ferroptosis in human U-937 cells assessed as upregulation of HMOX1 level at 10 uM in presence of Zinc protoporphyrin by flow cytometry analysis; assay type: functional, cell-based
[9] = Toxicity in female C57BL/6 mouse model assessed as change in body weight at 50 mg/kg, ip administered once daily; assay type: organism-based; conditions: in vivo
[10] = Toxicity in female C57BL/6 mouse assessed as drug tolerance at 50 mg/kg, ip administered once daily in presence of cytarabine; assay type: organism-based; conditions: in vivo
[11] = Antitumor activity against mouse MLL-AF9 cells allografted in female C57BL/6 mouse model assessed as GFP positive leukemic cells in peripheral blood at 50 mg/kg, ip administered once daily for 26 days in presence of cytarabine by FITC staining based analysis (reference value: 30.6 %); assay type: functional; conditions: time 26 day
U-937 [12] = assay: Antiproliferative activity in human U-937 cells assessed as suppression of cell growth at 10 uM in presence of Zinc protoporphyrin by trypan blue staining based analysis; assay type: functional
[13] = Toxicity in female C57BL/6 mouse assessed as increase in survival rate at 50 mg/kg, ip administered once daily by Kaplan Mayer survival analysis; assay type: organism-based; conditions: in vivo
[14] = system: Acute myeloid leukemic cell; assay: Induction of ferroptosis in human Acute myeloid leukemic cells assessed as upregulation of HMOX1 mRNA level by RT-qPCR analysis; assay type: functional, cell-based
[15] = Cmax in ICR(CD-1) mouse at 50 mg/kg, ip treated up to 24 hrs by LC-MS/MS analysis; assay type: ADME, organism-based; conditions: in vivo
MLL-AF9 [16] = assay: Antitumor activity against mouse MLL-AF9 cells allografted in female C57BL/6 mouse model assessed as reduction in splenomegaly at 50 mg/kg, ip administered once daily for 23 days in presence of cytarabine; assay type: functional, organism-based; conditions: time 23.0 day
MLL-AF9 [17] = assay: Antitumor activity against mouse MLL-AF9 cells allografted in female C57BL/6 mouse model assessed as reduction in hepatomegaly at 50 mg/kg, ip administered once daily for 23 days in presence of cytarabine; assay type: functional, organism-based; conditions: time 23.0 day
OCI-AML2 [18] = assay: Cytotoxicity against human OCI-AML2 cells assessed as cell growth inhibition at 5 uM incubated for 24 to 48 hrs by cell counting assay; assay type: functional, cell-based; conditions: time 24-48 hrs
MLL-AF9 [19] = assay: Antitumor activity against mouse MLL-AF9 cells allografted in female C57BL/6 mouse model assessed as reduction in hepatomegaly at 50 mg/kg, ip administered once daily for 23 days; assay type: functional, organism-based; conditions: time 23.0 day
U-937 [20] = assay: Cytotoxicity against human U-937 cells assessed as cell growth inhibition at 5 uM incubated for 24 to 48 hrs by cell counting assay; assay type: functional, cell-based; conditions: time 24-48 hrs
[21] = system: Acute myeloid leukemic cell; assay: Induction of ferroptosis in human Acute myeloid leukemic cells assessed as upregulation of TF mRNA level by RT-qPCR analysis; assay type: functional, cell-based
U-937 [22] = assay: Upregulation of p62 […] level in human U-937 cells at 2.5 to 10 uM incubated for 48 hrs by Western blot analysis; assay type: functional, cell-based; conditions: dose 2.5-10 µM
U-937 [23] = assay: Induction of cell cycle arrest in human U-937 cells assessed as accumulation of cells at G1 phase at 5 uM incubated for 48 hrs by EdU/DAPI staining based flow cytometry analysis; assay type: functional
[24] = system: Acute myeloid leukemic cell; assay: Induction of ferroptosis in human Acute myeloid leukemic cells assessed as upregulation of TFRC mRNA level by RT-qPCR analysis; assay type: functional, cell-based
THP-1 = assay: Antiproliferative activity against human THP-1 cells assessed as cell growth inhibition incubated for 2 days by CCK-8 assay; conditions: THP-1, 48 h
U-937 [25] = assay: Induction of ferroptosis in human U-937 cells assessed as increase in lipid peroxidation at 10 uM in presence of Zinc protoporphyrin by flow cytometry analysis; assay type: functional, cell-based
OCI-AML2 [26] = assay: Induction of ferroptosis in human OCI-AML2 cells assessed as increase in ferrous ion accumulation at 5 uM incubated for 48 hrs by RhoNox-1 staining based flow cytometry analysis; assay type: functional, cell-based
U-937 [27] = assay: Effect on WT1 gene expression in human U-937 cells at 10 uM incubated for 48 hrs by RT-qPCR; assay type: functional, cell-based
U-937 [28] = assay: Upregulation of Nrf2 protein level in human U-937 cells at 2.5 to 10 uM incubated for 48 hrs by Western blot analysis; assay type: functional, cell-based; conditions: dose 2.5-10 µM
[29] = system: Acute myeloid leukemic cell; assay: Induction of ferroptosis in human Acute myeloid leukemic cells assessed as upregulation of TFRC protein level at 2.5 to 10 uM by Western blot analysis; assay type: functional, cell-based; conditions: dose 2.5-10 µM
U-937 [30] = assay: Induction of cell apoptosis in human U-937 cells incubated for 48 hrs by Annexin V/DAPI staining based flow cytometry analysis; assay type: functional; conditions: dose 2.5-10 µM
MV4-11 = assay: Antiproliferative activity against human MV4-11 cells assessed as cell growth inhibition incubated for 2 days by CCK-8 assay; conditions: MV4-11, 48 h
[31] = Antitumor activity against mouse MLL-AF9 cells allografted in female C57BL/6 mouse model assessed as GFP positive leukemic cells in peripheral blood at 50 mg/kg, ip administered once daily for 26 days by FITC staining based analysis (reference value: 30.6 %); assay type: functional; conditions: time 26 day
Histone deacetylase 4 = Histone deacetylase 4 (Homo sapiens, UniProt P56524); assay: Inhibition of N-terminal GST-tagged C-terminal His-tagged human HDAC4 (627 to 1084 end residues) expressed in baculovirus expression system in Sf9 cells using Boc-Lys-(trifluoroacetyl)-AMC as substrate preincubated with enzyme for 1 hr followed by substrate addition and measured after 30 mins by fluorescence analysis
U-937 [32] = assay: Effect on CCNB1 gene expression in human U-937 cells at 10 uM incubated for 48 hrs by RT-qPCR; assay type: functional, cell-based
OCI-AML2 [33] = assay: Induction of cell apoptosis in human OCI-AML2 cells incubated for 48 hrs by Annexin V/DAPI staining based flow cytometry analysis; assay type: functional; conditions: dose 2.5-10 µM
[34] = Half life in ICR(CD-1) mouse at 5 mg/kg, iv treated up to 24 hrs by LC-MS/MS analysis; assay type: ADME, organism-based; conditions: in vivo
[35] = system: Acute myeloid leukemic cell; assay: Induction of ferroptosis in human Acute myeloid leukemic cells assessed as upregulation of HMOX1 protein level at 2.5 to 10 uM by Western blot analysis; assay type: functional, cell-based; conditions: dose 2.5-10 µM

Sequence of Histone deacetylase 4 (P56524 whole entry): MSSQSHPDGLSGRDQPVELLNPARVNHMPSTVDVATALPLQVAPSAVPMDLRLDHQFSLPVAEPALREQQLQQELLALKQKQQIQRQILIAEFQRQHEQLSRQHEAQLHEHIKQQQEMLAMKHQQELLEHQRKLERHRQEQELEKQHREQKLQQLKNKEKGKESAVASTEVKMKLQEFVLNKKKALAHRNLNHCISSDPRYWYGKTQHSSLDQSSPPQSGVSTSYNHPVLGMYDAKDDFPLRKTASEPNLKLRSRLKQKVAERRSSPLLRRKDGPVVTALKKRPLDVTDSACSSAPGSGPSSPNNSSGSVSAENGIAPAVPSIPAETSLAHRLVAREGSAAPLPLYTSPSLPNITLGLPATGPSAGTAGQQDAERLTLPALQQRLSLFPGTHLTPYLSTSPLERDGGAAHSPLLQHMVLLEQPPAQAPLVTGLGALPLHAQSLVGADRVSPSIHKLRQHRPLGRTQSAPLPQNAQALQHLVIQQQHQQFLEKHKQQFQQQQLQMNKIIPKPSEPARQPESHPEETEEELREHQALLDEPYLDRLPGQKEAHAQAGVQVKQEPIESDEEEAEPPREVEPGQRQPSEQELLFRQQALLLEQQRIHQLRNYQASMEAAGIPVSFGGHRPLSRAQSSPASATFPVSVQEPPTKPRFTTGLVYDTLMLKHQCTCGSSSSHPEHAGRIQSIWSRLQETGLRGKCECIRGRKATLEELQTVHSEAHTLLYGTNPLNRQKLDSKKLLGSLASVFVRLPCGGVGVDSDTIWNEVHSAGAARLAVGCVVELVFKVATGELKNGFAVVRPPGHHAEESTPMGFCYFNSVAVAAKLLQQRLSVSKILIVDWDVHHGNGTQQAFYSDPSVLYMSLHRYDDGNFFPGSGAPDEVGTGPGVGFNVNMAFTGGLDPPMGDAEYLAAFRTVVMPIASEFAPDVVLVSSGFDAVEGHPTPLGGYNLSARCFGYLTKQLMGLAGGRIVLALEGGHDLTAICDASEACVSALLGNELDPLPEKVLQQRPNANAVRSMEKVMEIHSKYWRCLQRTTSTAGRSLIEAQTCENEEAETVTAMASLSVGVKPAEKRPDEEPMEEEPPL

In the case of O=C(NO)c1cccc2[nH]c(C#Cc3cccc(C(F)(F)F)c3)cc12, the MRT inf [1] is reported as 6.03 h, the AUC(0-inf) [2] is reported as 2000 ng·h/mL and the Activity (U-937 [3]) is reported as “Active”. The Activity [4] was “Active”, the Activity (U-937 [5]) was “inactive” and the Activity [6] was “Active”. For the same molecule, the Activity (MLL-AF9 [7]) was “Active”, the Activity (U-937 [8]) was “Active; Partially Reversed Zinc Protoporphyrin Inhibition” and the Activity [9] was “Non-toxic”. For the same molecule, the Activity [10] was “Non-toxic”, the Activity [11] was 1.74% and the Activity (U-937 [12]) was “inactive”. For the same molecule, the Activity [13] was “Non-toxic”, the Activity [14] was “Active” and the Cmax [15] was 2920 ng/mL. For the same molecule, the Activity (MLL-AF9 [16]) was “Active”, the Activity (MLL-AF9 [17]) was “Active” and the Activity (OCI-AML2 [18]) was “Active”. For the same molecule, the Activity (MLL-AF9 [19]) was “Active”, the Activity (U-937 [20]) was “Active” and the Activity [21] was “Active”. The Activity (U-937 [22]) was “Active”, the Activity (U-937 [23]) was “Dose-dependent-effect” and the Activity [24] was “Active”. The IC50 (THP-1) was at most 10 µM, the Activity (U-937 [25]) was “Active” and the Activity (OCI-AML2 [26]) was “Active”. For the same molecule, the Activity (U-937 [27]) was “Active”, the Activity (U-937 [28]) was “Active” and the Activity [29] was “Active”. The Activity (U-937 [30]) was “Dose-dependent-effect”, the IC50 (MV4-11) was at most 10 µM and the Activity [31] was 11.2%. For the same molecule, the IC50 (Histone deacetylase 4) was over 100 µM, the Activity (U-937 [32]) was “Active” and the Activity (OCI-AML2 [33]) was “Dose-dependent-effect”. The half-life [34] was 0.82 h and the Activity [35] was “Active”.
